Results taken from patent publication US10981905B2, “Heteroaryl-substituted sulfonamide compounds and their use as therapeutic agents” (Xenon Pharmaceuticals Inc., priority 2018, dated 2021).
Structures can show the parent of a compound that is named as a salt. Where two headings read alike, the source gives them in different places.

How the values were obtained:
Nav1.5 [1] = molecular target: T1, Nav1.5 (Homo sapiens (Human), UniProt Q14524); experiment: Sodium Influx Assay (Flux), Nav1.5
Nav1.6 [2] = molecular target: T2, Nav1.6 (Homo sapiens (Human), UniProt Q9UQD0); experiment: Electrophysiological Assay (EP, patch voltage clamp), Nav1.6; format: cell-based; conditions: HEK-293 cells stably expressing the channel
Text: Patch voltage clamp electrophysiology allows for the direct measurement and quantification of block of voltage-gated sodium channels (Nav's), and allows the determination of the time- and voltage-dependence of block which has been interpreted as differential binding to the resting, open, and inactivated states of the sodium channel (Hille, B., Journal of General Physiology (1977), 69: 497-515).
Nav1.1, Nav1.5 and Nav1.6 cDNAs (NM_001165964 (SCN1A), NM_000335 (SCN5A) and NM_014191 (SCN8A), respectively) were stably expressed in HEK-293 cells.
Sodium currents were measured using the patch clamp technique in the whole-cell configuration using either a PatchXpress automated voltage clamp or manually using an Axopatch 200B (Axon Instruments) or Model 2400 (A-M systems) amplifier. The manual voltage clamp protocol was as follows: Borosilicate glass micropipettes were fire-polished to a tip diameter yielding a resistance of 2-4 Mohms in the working solutions. […] In some studies, the external sodium was reduced by equimolar replacement with choline. Osmolarity in the CsF internal and NaCl external solutions was adjusted to 300 mOsm/kg and 310 mOsm/kg with glucose, respectively. All recordings were performed at ambient temperature in a bath chamber with a volume of 150 μL. Control sodium currents were measured in 0.5% DMSO. Controls and representative compounds of the invention were applied to the recording chamber through a 4-pinch or 8-pinch valve bath perfusion system manufactured by ALA Scientific Instruments.
Currents were recorded at 40 kHz sampling frequency, filtered at […], and stored using a Digidata-1322A analogue/digital interface with the pClamp software (Axon Instruments). Series resistance compensation was applied (60-80%). […] All statistics in this study are given as mean±SD.
The membrane potential was maintained at a voltage where inactivation of the channel is complete. The voltage is then stepped back to a very negative (Vhold=−150 mV) voltage for 20 ms and then a test pulse is applied to quantify the compound block. The 20 ms brief repolarization was long enough for compound-free channels to completely recover from fast inactivation, but the compound-bound channels recovered more slowly such that negligible recovery could occur during this interval. The percent decrease in sodium current following wash-on of compound was taken as the percent block of sodium channels.

Nav1.6 [3] = molecular target: T2, Nav1.6; experiment: Sodium Influx Assay (Flux), Nav1.6; format: cell-based; conditions: Trex HEK293 cells, ANG2 dye, inactivated state
Nav1.1 = Nav1.1 (Homo sapiens (Human), UniProt P35498); experiment: Sodium Influx Assay (Flux), Nav1.1; format: cell-based; conditions: Trex HEK293 cells, ANG2 dye, inactivated state
Nav1.5 [4] = molecular target: T1, Nav1.5
[5] = read-out: Flux NaV1.5 IC50, sodium influx assay, Trex HEK293 cells, ANG2 dye, inactivated state

T2 sequence (Q9UQD0 whole entry): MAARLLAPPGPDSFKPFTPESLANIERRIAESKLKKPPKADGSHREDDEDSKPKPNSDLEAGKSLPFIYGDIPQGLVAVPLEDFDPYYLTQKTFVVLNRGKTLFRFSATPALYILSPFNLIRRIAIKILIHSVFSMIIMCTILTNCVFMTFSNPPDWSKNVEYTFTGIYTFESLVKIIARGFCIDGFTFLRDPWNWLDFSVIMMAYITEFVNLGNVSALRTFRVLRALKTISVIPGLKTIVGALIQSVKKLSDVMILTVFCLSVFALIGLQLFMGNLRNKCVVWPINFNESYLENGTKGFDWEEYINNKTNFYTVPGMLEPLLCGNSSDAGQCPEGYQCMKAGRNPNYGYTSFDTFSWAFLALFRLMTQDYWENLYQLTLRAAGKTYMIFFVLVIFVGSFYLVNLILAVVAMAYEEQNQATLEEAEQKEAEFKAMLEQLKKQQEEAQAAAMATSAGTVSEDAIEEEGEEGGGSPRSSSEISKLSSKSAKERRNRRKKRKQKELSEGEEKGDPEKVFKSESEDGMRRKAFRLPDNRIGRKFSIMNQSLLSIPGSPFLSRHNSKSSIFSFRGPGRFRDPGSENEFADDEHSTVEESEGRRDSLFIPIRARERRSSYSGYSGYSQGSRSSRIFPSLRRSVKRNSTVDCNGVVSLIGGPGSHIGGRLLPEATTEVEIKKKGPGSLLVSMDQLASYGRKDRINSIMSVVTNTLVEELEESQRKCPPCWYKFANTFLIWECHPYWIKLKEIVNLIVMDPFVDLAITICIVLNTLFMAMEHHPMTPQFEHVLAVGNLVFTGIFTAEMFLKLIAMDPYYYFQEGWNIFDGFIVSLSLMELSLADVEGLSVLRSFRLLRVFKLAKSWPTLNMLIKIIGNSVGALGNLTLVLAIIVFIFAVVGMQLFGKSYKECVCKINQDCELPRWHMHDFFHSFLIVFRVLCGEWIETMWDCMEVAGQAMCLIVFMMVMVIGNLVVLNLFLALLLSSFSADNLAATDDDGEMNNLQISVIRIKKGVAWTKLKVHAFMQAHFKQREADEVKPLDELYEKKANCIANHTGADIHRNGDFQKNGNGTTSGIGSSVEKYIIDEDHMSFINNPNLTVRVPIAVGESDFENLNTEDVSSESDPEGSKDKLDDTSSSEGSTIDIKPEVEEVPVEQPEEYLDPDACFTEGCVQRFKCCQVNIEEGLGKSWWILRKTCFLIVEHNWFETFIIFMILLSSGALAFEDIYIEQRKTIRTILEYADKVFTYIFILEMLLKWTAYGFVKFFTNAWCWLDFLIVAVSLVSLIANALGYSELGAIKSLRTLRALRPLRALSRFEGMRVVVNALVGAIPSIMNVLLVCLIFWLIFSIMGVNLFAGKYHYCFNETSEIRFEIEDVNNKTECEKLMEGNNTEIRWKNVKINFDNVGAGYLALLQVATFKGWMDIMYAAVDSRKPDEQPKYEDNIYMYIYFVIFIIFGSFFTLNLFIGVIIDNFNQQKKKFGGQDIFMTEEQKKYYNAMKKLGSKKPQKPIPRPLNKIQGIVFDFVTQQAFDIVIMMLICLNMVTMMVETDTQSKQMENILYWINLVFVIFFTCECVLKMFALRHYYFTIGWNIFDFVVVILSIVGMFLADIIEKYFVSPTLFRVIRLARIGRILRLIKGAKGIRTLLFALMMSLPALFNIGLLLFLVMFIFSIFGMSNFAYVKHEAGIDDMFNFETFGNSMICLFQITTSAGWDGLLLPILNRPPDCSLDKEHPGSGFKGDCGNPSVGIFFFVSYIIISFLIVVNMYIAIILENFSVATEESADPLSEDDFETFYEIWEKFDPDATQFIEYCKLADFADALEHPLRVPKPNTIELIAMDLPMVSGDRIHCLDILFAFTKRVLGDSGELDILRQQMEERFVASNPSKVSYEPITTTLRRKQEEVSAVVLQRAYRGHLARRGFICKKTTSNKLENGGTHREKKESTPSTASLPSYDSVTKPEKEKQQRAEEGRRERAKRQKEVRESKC
T1 sequence (Q14524 other isoform, or with tags, fused parts or gaps): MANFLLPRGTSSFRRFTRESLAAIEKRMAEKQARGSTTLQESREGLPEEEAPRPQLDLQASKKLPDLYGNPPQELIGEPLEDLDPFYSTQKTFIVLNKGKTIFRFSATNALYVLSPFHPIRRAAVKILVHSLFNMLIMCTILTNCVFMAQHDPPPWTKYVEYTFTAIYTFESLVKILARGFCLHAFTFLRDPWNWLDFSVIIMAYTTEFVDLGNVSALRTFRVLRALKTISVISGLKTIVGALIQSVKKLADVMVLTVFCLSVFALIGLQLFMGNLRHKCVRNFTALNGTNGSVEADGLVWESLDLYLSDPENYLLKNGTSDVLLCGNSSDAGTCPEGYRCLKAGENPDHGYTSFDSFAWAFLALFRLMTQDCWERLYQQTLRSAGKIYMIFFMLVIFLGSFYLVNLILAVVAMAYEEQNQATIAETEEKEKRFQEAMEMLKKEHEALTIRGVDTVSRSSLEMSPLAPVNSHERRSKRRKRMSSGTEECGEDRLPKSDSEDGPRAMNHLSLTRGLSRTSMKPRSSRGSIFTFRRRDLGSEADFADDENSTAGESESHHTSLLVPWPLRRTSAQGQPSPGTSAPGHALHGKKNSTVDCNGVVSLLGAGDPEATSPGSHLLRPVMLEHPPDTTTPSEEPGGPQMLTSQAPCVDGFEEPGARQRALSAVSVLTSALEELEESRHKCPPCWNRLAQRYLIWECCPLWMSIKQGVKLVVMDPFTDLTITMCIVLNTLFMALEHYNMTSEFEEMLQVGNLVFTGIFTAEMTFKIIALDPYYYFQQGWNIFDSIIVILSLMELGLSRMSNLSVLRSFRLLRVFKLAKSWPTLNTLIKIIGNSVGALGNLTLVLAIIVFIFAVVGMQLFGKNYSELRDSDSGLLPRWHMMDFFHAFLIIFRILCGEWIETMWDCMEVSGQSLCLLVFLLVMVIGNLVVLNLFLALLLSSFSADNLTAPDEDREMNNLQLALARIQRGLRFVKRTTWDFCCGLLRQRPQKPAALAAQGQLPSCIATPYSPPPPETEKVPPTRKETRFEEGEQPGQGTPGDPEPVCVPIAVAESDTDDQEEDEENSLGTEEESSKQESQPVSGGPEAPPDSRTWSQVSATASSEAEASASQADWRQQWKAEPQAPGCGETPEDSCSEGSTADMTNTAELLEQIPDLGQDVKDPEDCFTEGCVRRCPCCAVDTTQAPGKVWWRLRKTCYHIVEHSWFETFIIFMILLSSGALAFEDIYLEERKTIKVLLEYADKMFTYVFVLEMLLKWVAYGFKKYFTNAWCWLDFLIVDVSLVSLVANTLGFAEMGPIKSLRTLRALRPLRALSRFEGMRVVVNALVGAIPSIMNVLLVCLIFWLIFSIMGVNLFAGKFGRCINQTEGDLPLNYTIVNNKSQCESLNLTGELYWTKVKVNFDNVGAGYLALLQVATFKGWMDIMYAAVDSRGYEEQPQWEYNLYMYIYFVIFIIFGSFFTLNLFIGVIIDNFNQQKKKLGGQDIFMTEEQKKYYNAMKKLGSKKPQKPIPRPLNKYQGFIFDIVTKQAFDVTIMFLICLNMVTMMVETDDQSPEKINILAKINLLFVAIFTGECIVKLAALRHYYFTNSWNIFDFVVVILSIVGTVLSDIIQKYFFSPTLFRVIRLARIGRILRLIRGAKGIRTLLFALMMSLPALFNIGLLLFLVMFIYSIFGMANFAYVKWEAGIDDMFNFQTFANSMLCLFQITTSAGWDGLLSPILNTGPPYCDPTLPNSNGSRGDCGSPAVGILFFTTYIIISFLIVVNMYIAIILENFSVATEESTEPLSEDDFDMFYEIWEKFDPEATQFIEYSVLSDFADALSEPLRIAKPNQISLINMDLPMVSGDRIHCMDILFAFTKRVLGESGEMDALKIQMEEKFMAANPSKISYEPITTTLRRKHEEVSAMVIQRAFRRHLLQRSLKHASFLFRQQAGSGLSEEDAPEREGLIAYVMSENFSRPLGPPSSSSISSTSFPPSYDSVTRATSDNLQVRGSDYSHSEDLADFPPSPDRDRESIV

Structure (SMILES)	IC50 (Nav1.5 [1]; [5])	IC50 (Nav1.6 [2])	IC50 (Nav1.6 [3])	IC50 (Nav1.1)	IC50 (Nav1.5 [4])	IC50 (Nav1.5 [1])
Cc1nc(S(=O)(=O)Nc2cscn2)ccc1NCc1c(F)cccc1CN1CCC1 [Example 4, 5-((2-(azetidin-1-ylmethyl)-6-fluorobenzyl)amino)-6-methyl-N-(thiazol-4-yl)pyridine-2-sulfonamide]	28.2 µM	0.026 µM	0.111 µM	28.8 µM	–	–
Cc1nc(S(=O)(=O)Nc2cscn2)ccc1NCc1c(F)cccc1CN1C2CCC1CC2 [Example 25, 5-((2-((7-azabicyclo[2.2.1]heptan-7-yl)methyl)-6-fluorobenzyl)amino)-6-methyl-N-(thiazol-4-yl)pyridine-2-sulfonamide trifluoroacetic acid salt]	–	–	0.154 µM	30 µM	30 µM	–
O=S(=O)(Nc1cscn1)c1ccc(NCc2c(F)cccc2CN2C3CCC2CC3)c(C(F)(F)F)n1 [Example 47, 5-((2-((7-azabicyclo[2.2.1]heptan-7-yl)methyl)-6-fluorobenzyl)amino)-N-(thiazol-4-yl)-6-(trifluoromethyl)pyridine-2-sulfonamide trifluoroacetic acid salt]	–	–	0.021 µM	13.6 µM	30 µM	–
Cc1nc(S(=O)(=O)Nc2cscn2)ccc1NCc1c(F)cccc1CN(C)C(C)(C)C [Example 6, 5-((2-((tert-butyl(methyl)amino)methyl)-6-fluorobenzyl)amino)-6-methyl-N-(thiazol-4-yl)pyridine-2-sulfonamide formic acid salt]	30 µM	0.069 µM	0.398 µM	30 µM	–	–
Cc1nc(S(=O)(=O)Nc2cscn2)ccc1NCc1c(F)ccc(F)c1CN(C)C(C)(C)C [Example 21, 5-((2-((tert-butyl(methyl)amino)methyl)-3,6-difluorobenzyl)amino)-6-methyl-N-(thiazol-4-yl)pyridine-2-sulfonamide trifluoroacetic acid salt]	30 µM	0.043 µM	0.102 µM	30 µM	–	–
Cc1nc(S(=O)(=O)Nc2ccsn2)ccc1NCc1c(F)cccc1CN(C)C(C)(C)C [Example 19, 5-((2-((tert-butyl(methyl)amino)methyl)-6-fluorobenzyl)amino)-N-(isothiazol-3-yl)-6-methylpyridine-2-sulfonamide trifluoroacetic acid salt]	30 µM	0.038 µM	0.221 µM	30 µM	–	–
Cc1nc(S(=O)(=O)Nc2ccsn2)ccc1NCc1c(F)cccc1CN1CCC1 [Example 20, 5-((2-(azetidin-1-ylmethyl)-6-fluorobenzyl)amino)-N-(isothiazol-3-yl)-6-methylpyridine-2-sulfonamide trifluoroacetic acid salt]	25 µM	0.023 µM	0.067 µM	30 µM	–	–
Cc1nc(S(=O)(=O)Nc2cscn2)c(F)cc1NCc1c(F)cccc1CN(C)C(C)(C)C [Example 48, 5-((2-((tert-butyl(methyl)amino)-methyl)-6-fluorobenzyl)amino)-3-fluoro-6-methyl-N-(thiazol-4-yl)pyridine-2-sulfonamide]	30 µM	0.017 µM	0.084 µM	30 µM	–	–
Cc1nc(S(=O)(=O)Nc2cscn2)c(F)cc1NCc1c(F)cccc1CN1C2CCC1CC2 [Example 33, 5-((2-((azabicyclo[2.2.1]heptan-7-yl)methyl)-6-fluorobenzyl)amino)-3-fluoro-6-methyl-N-(thiazol-4-yl)pyridine-2-sulfonamide trifluoroacetic acid salt]	–	–	–	–	30 µM	–
Cc1cc(S(=O)(=O)Nc2ccsn2)ncc1NCc1c(F)cccc1CN1CCC1 [Example 12, 5-((2-(azetidin-1-ylmethyl)-6-fluorobenzyl)amino)-N-(isothiazol-3-yl)-4-methylpyridine-2-sulfonamide trifluoroacetic acid salt]	30 µM	–	3.43 µM	30 µM	–	–
CN(Cc1cccc(F)c1CNc1ncc(S(=O)(=O)Nc2cscn2)cc1Cl)C(C)(C)C [Example 11, 6-((2-((tert-butyl(methyl)amino)methyl)-6-fluorobenzyl)amino)-5-chloro-N-(thiazol-4-yl)pyridine-3-sulfonamide formic acid salt]	8.87 µM	–	8.37 µM	11.7 µM	–	–
Cc1nc(S(=O)(=O)Nc2cccc(F)n2)ccc1NCc1c(F)cccc1CN1CCCC1 [Example 41, 5-((2-fluoro-6-(pyrrolidin-1-ylmethyl)benzyl)amino)-N-(6-fluoropyridin-2-yl)-6-methylpyridine-2-sulfonamide trifluoroacetic acid salt]	30 µM	–	0.056 µM	11.1 µM	–	–
Cc1nc(NCc2c(F)cccc2CN2CCCC2)ccc1S(=O)(=O)Nc1cccc(F)n1 [Example 40, 6-((2-fluoro-6-(pyrrolidin-1-ylmethyl)benzyl)amino)-N-(6-fluoropyridin-2-yl)-2-methylpyridine-3-sulfonamide trifluoroacetic acid salt]	3.27 µM	–	2.23 µM	5.54 µM	–	–
Cc1nc(S(=O)(=O)Nc2cscn2)ccc1NCc1cccc2ccncc12 [Example 16, 5-((isoquinolin-8-ylmethyl)amino)-6-methyl-N-(thiazol-4-yl)pyridine-2-sulfonamide formic acid salt]	30 µM	–	1.27 µM	30 µM	–	–
Cc1nc(NCc2c(F)cccc2CN(C)C(C)(C)C)ccc1S(=O)(=O)Nc1cscn1 [Example 10, 6-((2-((tert-butyl(methyl)amino)methyl)-6-fluorobenzyl)amino)-2-methyl-N-(thiazol-4-yl)pyridine-3-sulfonamide formic acid salt]	7.76 µM	–	5.31 µM	23.6 µM	–	–
Cc1nc(S(=O)(=O)Nc2cscn2)ccc1NCc1ccccc1CN1CCC1 [Example 26, 5-((2-(azetidin-1-ylmethyl)benzyl)amino)-6-methyl-N-(thiazol-4-yl)pyridine-2-sulfonamide trifluoroacetic acid salt]	30 µM	–	0.242 µM	30 µM	–	–
C[C@H](Nc1ncc(S(=O)(=O)Nc2cscn2)cc1Cl)c1ccccc1F [Example 2, (S)-5-chloro-6-((1-(2-fluorophenyl)ethyl)amino)-N-(thiazol-4-yl)pyridine-3-sulfonamide]	20.4 µM	–	13.2 µM	25.8 µM	–	–
Cc1nc(S(=O)(=O)Nc2ccon2)c(F)cc1NCc1ccccc1CN(C)C(C)(C)C [Example 46, 5-((2-((tert-butyl(methyl)amino)methyl)benzyl)amino)-3-fluoro-N-(isoxazol-3-yl)-6-methylpyridine-2-sulfonamide trifluoroacetic acid salt]	–	–	1.78 µM	≥ 30 µM	–	≥ 30 µM
Cc1nc(S(=O)(=O)Nc2cscn2)ccc1NCc1c(F)cccc1CN(C)C(C)C [Example 29, 5-((2-fluoro-6-((isopropyl(methyl)amino)methyl)benzyl)amino)-6-methyl-N-(thiazol-4-yl)pyridine-2-sulfonamide trifluoroacetic acid salt]	–	0.039 µM	0.082 µM	≥ 30 µM	–	≥ 30 µM
O=S(=O)(Nc1cccc(F)n1)c1cnc(NCc2c(F)cccc2CN2CCCC2)c(Cl)c1 [Example 42, 5-chloro-6-((2-fluoro-6-(pyrrolidin-1-ylmethyl)benzyl)amino)-N-(6-fluoropyridin-2-yl)pyridine-3-sulfonamide trifluoroacetic acid salt]	9.11 µM	–	4.47 µM	6.29 µM	–	–
